# Like-named read-outs stand apart in the source and are kept apart here.
# Columns and labels:
# Serum stability assay = assay type: in vitro ADME; settings: 25% fetal bovine serum in RPMI, 60 μM peptide, read-out: initial peptide remaining intact
# Description: Time points of 30 minutes, 1 hr, 2 hr, 8 hr, and 24 hrs were analyzed in triplicate. Each reaction was started upon addition of FBS to 60 μM peptide. Reactions were quenched at time points with addition of 100% EtOH, chilled on ice for 10 minutes, and pelleted at 12,000 RPM. Supernatant was injected onto an Agilent analytical HPLC equipped with an XTerra RP18 3.5 μm 2.1×150 mm column (Part No. 186000410) and visualized at 220 nm. Integration of peak areas was used to determine percent degradation of peptides. Mass of cleaved products were determined using Matrix assisted laser desorption ion time of flight (MALDI-TOF) spectroscopy.
# BC-1 cells = experiment: Live cell confocal microscopy cellular uptake; assay type: in vitro ADME
# Description: Live Cell Confocal Microscopy and Analysis: BC1 PEL cells in the exponential phase were resuspended in RPMI 1640 media supplemented with 50 μg/ml gentamicin in the absence of serum and treated with a final concentration of 0.125% DMSO or 500 nM FITC-labeled peptide at 37° C., cold or in the presence of 10 mM sodium azide. Cells were then added to 35 mm glass bottom MatTek poly-lysine coated plates (p356c-0-10C) and immunofluorescence images were captured using LSM880 confocal miscroscope with Airyscan resolution detector, spectral detector and incubation. Images were processed using Fiji software (FIG. 14).
# Inhibition of the vFLIP-NEMO complex formation in KSHV-infected PEL cells requires the inhibitor to be cell permeable. […] In order to probe cellular entry mechanism, we performed cellular uptake experiments at 4° C. as well as with sodium azide poisoning to reduce ATP-mediated active transport mechanisms without affecting overall cellular viablity (Patgiri et al., Nat. Chem. Biol. 7:585-7 (2011); which is hereby incorporated by reference in its entirety).
# [1] = tested on: BC-3-luc PEL cells xenograft; experiment: PEL in vivo xenograft mouse model; parameters: species or system NOD/SCID mice; settings: 20 mg/kg intraperitoneally, 9 consecutive days
# Description: PEL in Vivo Xenograft Mouse Model Study: […] BC3NFRen-luc #3 were injected intraperitoneally into 4-6 week-old male NOD/SCID mice. […] The tumor burden or bioluminescence (photons/s/cm^2/steradian) was monitored by live imaging and weighing, with the sacrificial endpoint determined to be a net gain or loss of 10% body weight over a week.
# We next tested its antitumor activity in vivo. We injected 10×10^6 BC-3-luc PEL cells into the peritoneal cavity of NOD-SCID mice and monitored tumor burden by bioluminescence imaging.
# [2] = Circular dichroism thermal denaturation; assay type: physicochemical; settings: CD spectra between 5-95° C.
# From the text: (§1) Data plotted represent mean±s.e.m of three replicate experiments. TR-FRET signal was normalized to DMSO control and expressed as percent inhibition. […] Data shown represent mean±s.d. of two independent experiments performed in triplicate. Data was normalized to c. (FIG. 3C) The conformation of the coiled coil mimics was investigated by circular dichroism spectroscopy in aqueous buffer. The reported values represent mean±s.e.m of two independent experiments. […] The circular dichroism spectra were collected at regular intervals between 5-95° C. Data shown represent one experiment where scans were recorded five times over the temperature range. […] Peptide degradation was probed over 24 h by HPLC. […] Cells were visualized by fluorescence microscopy after 1 hour incubation. […] Hoechst stain was used to detect the nuclei. Representative live confocal images from at least three replicate experiments are shown.
# Circular Dichroism Spectroscopy: CD spectra were recorded on a Jasco J-1500 Circular Dichroism Spectrophotometer equipped with a temperature controller using 1 mm length cells and a scan speed of 4 nm/min at 298K. The spectra were averaged over 4 scans with the background subtracted to the analogous experimental conditions. […] The concentrations of each peptide were determined by the UV absorption at 280 nm.
# in vitro = settings: human
# Description: (§2) Cytotoxicity of these hits was assayed using CellTiter Glo viability assay.
# BC-3 PEL cell line [3] = experiment: CellTiter-Glo cell viability assay, BC-3; settings: read-out: BC-3 LC50 (μM)
# Description: Media was supplemented with 20% FBS 3 hours post-peptide treatment.
# as §2
# full length NEMO = experiment: Fluorescence polarization direct binding assay, specificity over NEMO; settings: FITC-labeled peptide
# From the text: as §1
# The polarization experiments were performed using a DTX 880 Multimode Detector (Beckman) at 25° C. with excitation and emission wavelengths of 485 and 525 nm, respectively. Each polarization experiment was performed in a 96-well round bottom plate (Greiner) in assay buffer: Tris glycerol pluronic acid. The binding affinity (KD) values reported for each peptide are from experiments performed in triplicate. […]
# BCBL-1 PEL cell line = settings: BCBL-1, KSHV+; read-out: PU-H71 LC50; cited from earlier work
# [4] = tested on: Namalwa Burkitt lymphoma cell line; experiment: CellTiter-Glo cell viability assay, Namalwa; assay type: cell-based
# [5] = tested on: Namalwa Burkitt lymphoma cell line; settings: EBV+, read-out: PU-H71 LC50; cited from earlier work
# [6] = tested on: PEL cell lines (BC-1, BC-3, BCBL-1); experiment: CellTiter-Glo cytotoxicity in panel of PEL cell lines; assay type: cell-based; settings: FIG. 5A
# BC-3 PEL cell line [7] = settings: BC-3, KSHV+; read-out: PU-H71 LC50; cited from earlier work
# BC-2 PEL cell line = settings: BC-2, KSHV+/EBV+; read-out: PU-H71 LC50; cited from earlier work
# BC-1 PEL cell line = settings: BC-1, KSHV+/EBV+; read-out: PU-H71 LC50; cited from earlier work
# [8] = biological target: T1, vFLIP/NEMO complex in vFLIP-FLAG doxycycline-inducible Namalwa cell line (Human herpesvirus 8 type P, UniProt F5HEZ4); experiment: Co-immunoprecipitation of vFLIP-FLAG and NEMO; assay type: cell-based; settings: 24 hrs treatment, increasing concentrations
# T1 construct: expressed in transfected cells; host or cells: Namalwa Burkitt lymphoma cells, lentivirally transduced (pLVX-TetOne-puro), doxycycline-induced
# Description: Co-Immunoprecipiation: FLAG-tagged WT vFLIP or a vFLIP NF-κB dead mutant (vFLIP^AAA(58-60)) inducible Namalwa Burkitt lymphoma cell lines were used. Expression of WT vFLIP or mutant vFLIP was attained by treating cells with 1 μg/mL doxcycline for 24 hrs. […] 4 hours post-treatment, media was supplemented with 20% FBS and treatment continued for another 24 hrs. Next day, uninduced Namalwa WT vFLIP cell line, treated Namalwa WT vFLIP expressing cell lines as well as Namalwa expressing mutant vFLIP and parental Namalwa cell lines were harvested, washed in PBS and lysed on ice for 30 minutes using CelLytic M lysis reagent (Sigma, cat. C2978) supplemented with protease inhibitor cocktail (calbiochem, cat 539134). Cells were spun down and some of supernatants was saved for input and the rest was immunoprecipitated overnight using anti-FLAG M2beads (Sigma, cat. A2220) that were pre-equilibrated with the same buffer. […]
# Immunoblotting: For co-immunoprecipitation study, eluted protein lysates were separated using pre-casted 10% sodium dodecyl sulfate-polyacrylamide gel electrophoresis SDS-PAGE gel (Bio-rad). […] Secondary anti-HRP rabbit antibody was used at 1:5000 dilution (GE healthcare) and chemiluminescent signal was detected using enhanced chemiluminescence (ECL) substrate (thermo Fisher Scientific) and autoradiography. […]
# T1 sequence (F5HEZ4 whole entry, one chain of several): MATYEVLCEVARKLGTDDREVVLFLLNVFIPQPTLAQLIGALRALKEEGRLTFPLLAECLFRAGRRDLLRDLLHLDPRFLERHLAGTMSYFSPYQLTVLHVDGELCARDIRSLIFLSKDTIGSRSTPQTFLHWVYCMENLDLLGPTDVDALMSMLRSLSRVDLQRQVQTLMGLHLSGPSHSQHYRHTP
smiles,measurement,setting,value
CC[C@H](C)[C@H](NC(=O)[C@H](CC(C)C)NC(=O)[C@H](CCC(=O)O)NC(=O)[C@H](CC(=O)O)NC(=O)[C@@H](NC(=O)[C@H](CCCCn1cc(COCc2cn(CCCC[C@H](NC(=O)[C@H](CC(C)C)NC(=O)[C@H](CCCNC(=N)N)NC(=O)[C@H](CCCNC(=N)N)NC(=O)[C@@H](NC(=O)[C@H](CCC(=O)NC3CCCCC3)NC(=O)[C@H](CCC(=O)O)NC(=O)[C@H](Cc3c[nH]c4ccccc34)NC(=O)[C@H](CC(C)C)NC(=O)[C@H](CCC(N)=O)NC(=O)[C@H](CCCNC(=N)N)NC(=O)[C@@H](NC(=O)[C@H](Cc3c[nH]c4ccccc34)NC(=O)[C@H](CCC(=O)O)NC(C)=O)[C@@H](C)CC)[C@@H](C)CC)C(N)=O)nn2)nn1)NC(=O)[C@H](CCCNC(=N)N)NC(=O)[C@H](Cc1ccccc1)NC(=O)[C@H](CC(C)C)NC(=O)[C@H](CCCNC(=N)N)NC(=O)[C@H](Cc1c[nH]cn1)NC(=O)[C@@H](NC(=O)[C@H](CCC(=O)O)NC(C)=O)[C@@H](C)CC)[C@@H](C)CC)C(=O)N[C@@H](CCCNC(=N)N)C(N)=O [CHD3^NEMO],"remaining at 24 h, 60 μM",Serum stability assay,~80%
same,cellular uptake at cold temperatures and with sodium azide,"BC-1 cells; 4° C., 10 mM sodium azide",reduction in cellular uptake
same,observed toxicity,[1],without any observed toxicity
same,conformational stability (helix percentage vs temperature),[2],retain a significant proportion of helix percentage at high temperatures
CCOc1ccc2nc3cc(N)ccc3c(N)c2c1 [Compound 2],CC50,in vitro,7.7 µM
same,CC50,BC-3 PEL cell line [3],12.2 µM
c1ccc2c(c1)Nc1ccccc1S2 [Compound 3],CC50,in vitro,63 µM
same,CC50,BC-3 PEL cell line [3],62.7 µM
CN(Cc1ccc2cccnc2c1)S(=O)(=O)c1cccs1 [Compound 4],CC50,in vitro,> 100 µM
same,CC50,BC-3 PEL cell line [3],> 100 µM
Cc1cc(CNC(=O)NC2CCCC2)cc(C)c1O [Compound 5],CC50,in vitro,> 100 µM
same,CC50,BC-3 PEL cell line [3],> 100 µM
CC(=O)N1CCc2cc(C(=O)C(C)Oc3ccc(C#N)cc3Cl)ccc21 (stereo not drawn) [Compound 6],CC50,in vitro,69.7 µM
same,CC50,BC-3 PEL cell line [3],35.9 µM
O=C(C1CCCN1c1ncccn1)N1CCc2c(Cl)cccc2C1 (stereo not drawn) [Compound 7],CC50,in vitro,31.6 µM
same,CC50,BC-3 PEL cell line [3],39.9 µM
Cc1cccc(-c2cccc(CNC(=O)NCCS(C)(=O)=O)c2)c1 [Compound 8],CC50,in vitro,> 100 µM
same,CC50,BC-3 PEL cell line [3],> 100 µM
CCCCC(CC)CNC(=N)NC(=N)NCCCCCCNC(=N)NC(=N)NCC(CC)CCCC (stereo not drawn) [Compound 9],CC50,in vitro,3.8 µM
same,CC50,BC-3 PEL cell line [3],3.9 µM
CC[C@H](C)[C@H](NC(=O)[C@H](CC(C)C)NC(=O)[C@H](CCC(=O)O)NC(=O)[C@H](CC(=O)O)NC(=O)[C@@H](NC(=O)[C@H](CCCCn1cc(COCc2cn(CCCC[C@H](NC(=O)[C@H](CC(C)C)NC(=O)[C@H](CCCNC(=N)N)NC(=O)[C@H](CCCNC(=N)N)NC(=O)[C@@H](NC(=O)[C@H](CCC(=O)NC3CCCCC3)NC(=O)[C@H](CCC(=O)O)NC(=O)[C@H](Cc3c[nH]c4ccccc34)NC(=O)[C@H](CC(C)C)NC(=O)[C@H](CCC(N)=O)NC(=O)[C@H](CCCNC(=N)N)NC(=O)[C@@H](NC(=O)[C@H](Cc3c[nH]c4ccccc34)NC(=O)[C@H](CCC(=O)O)NC(=O)CCNC(=S)Nc3ccc4c(c3)C(=O)OC43c4ccc(O)cc4Oc4cc(O)ccc43)[C@@H](C)CC)[C@@H](C)CC)C(N)=O)nn2)nn1)NC(=O)[C@H](CCCNC(=N)N)NC(=O)[C@H](Cc1ccccc1)NC(=O)[C@H](CC(C)C)NC(=O)[C@H](CCCNC(=N)N)NC(=O)[C@H](Cc1c[nH]cn1)NC(=O)[C@@H](NC(=O)[C@H](CCC(=O)O)NC(C)=O)[C@@H](C)CC)[C@@H](C)CC)C(=O)N[C@@H](CCCNC(=N)N)C(N)=O [FITC-CHD3^NEMO],time to enter BC-1 cells,"BC-1 cells; 500 nM FITC-labeled peptide, 37° C.",≤ 30 min
same,binding to wild-type NEMO coiled coil,full length NEMO,failed to bind wild-type NEMO coiled coil
CC(C)NCCCn1c(Sc2cc3c(cc2I)OCO3)nc2c(N)ncnc21 [PU-H71],CC50,BCBL-1 PEL cell line,0.217 µM
same,sensitivity of vFLIP-negative Namalwa cells,[4],showed sensitivity
same,CC50,[5],0.337 µM
same,sensitivity of PEL cell lines,[6],showed sensitivity
same,CC50,BC-3 PEL cell line [7],0.0634 µM
same,CC50,BC-2 PEL cell line,0.0271 µM
same,CC50,BC-1 PEL cell line,0.0369 µM
same,disruption of vFLIP/NEMO complex (NEMO pulled down by FLAG beads),[8],disrupted the complex and destabilized both vFLIP and NEMO

# Reference: patent US11891422B2 (priority 2018, dated 2024)
